Measurements reported in PubChem BioAssay AID330 (DTP/NCI, 2004).
Several values for one entry are separate records, joined by “and”; a condition that tells them apart may be missing. Equal values may be shown once. Inconclusive results and toxic doses are left out.

Tested on: P388 leukemia ip, CD2F1 mice, survival T/C
Test: NCI In Vivo Anticancer Drug Screen. Data for tumor model P388 Leukemia (intraperitoneal) in CD2F1 (CDF1) mice
Settings: endpoint: median survival time, higher = longer survival
Outline: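 Mice carrying the transplanted tumor received test compound or vehicle. Survival was recorded in each group, and the value is the treated-group measurement divided by that of the vehicle-treated control group.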

[1] = dose: 100.0 mg/kg/injection, schedule: Q01DX009 (ip), vehicle: saline with Tween-80
[2] = dose: 200.0 mg/kg/injection, schedule: Q01DX009 (ip), vehicle: saline with Tween-80

## COc1ccc2c(C)cc(N/N=C/c3cccc(C)n3)nc2c1
dose: 50.0 mg/kg/injection, schedule: Q01DX005 (ip), vehicle: Klucel (hydroxypropylcellulose) (HPC)
  T/C: 98 % of control and 104 % of control and 93 % of control
dose: 100.0 mg/kg/injection, schedule: Q01DX005 (ip), vehicle: Klucel (hydroxypropylcellulose) (HPC)
  T/C: 105 % of control and 109 % of control and 110 % of control
dose: 200.0 mg/kg/injection, schedule: Q01DX005 (ip), vehicle: Klucel (hydroxypropylcellulose) (HPC)
  T/C: 104 % of control and 116 % of control and 124 % of control

## BrC1CC(Br)c2c1c1c(c3c2C(Br)CC3Br)C(Br)CC1Br (stereo not drawn)
[1]
  T/C: 150 % of control
[2]
  T/C: 156 % of control

## COP(=O)(CC(=O)CCCCCOC1CCCCO1)OC (stereo not drawn)
dose: 50.0 mg/kg/injection, schedule: Q01DX005 (ip), vehicle: saline
  T/C: 100 % of control
dose: 100.0 mg/kg/injection, schedule: Q01DX005 (ip), vehicle: saline
  T/C: 100 % of control
dose: 200.0 mg/kg/injection, schedule: Q01DX005 (ip), vehicle: saline
  T/C: 99 % of control

## COc1ccc(C2C3CCCC(C3O)C(c3ccc(OC)cc3)N2C)cc1 (stereo not drawn)
dose: 100.0 mg/kg/injection, schedule: Q04DX003 (ip), vehicle: suspension in saline
  T/C: 103 % of control
dose: 200.0 mg/kg/injection, schedule: Q04DX003 (ip), vehicle: suspension in saline
  T/C: 104 % of control
dose: 400.0 mg/kg/injection, schedule: Q04DX003 (ip), vehicle: suspension in saline
  T/C: 100 % of control

## O=C(Nc1cccc(S(=O)(=O)F)c1)Oc1ccc([N+](=O)[O-])cc1
dose: 60.0 mg/kg/injection, schedule: Q01DX005 (ip), vehicle: saline with Tween-80
  T/C: 113 % of control
dose: 120.0 mg/kg/injection, schedule: Q01DX005 (ip), vehicle: saline with Tween-80
  T/C: 111 % of control
dose: 240.0 mg/kg/injection, schedule: Q01DX005 (ip), vehicle: saline with Tween-80
  T/C: 93 % of control

## Cc1ccc(NCCN(C)C)c2c(=O)c3cc(O)ccc3sc12
dose: 1.0 mg/kg/injection, schedule: Q01DX009 (ip), vehicle: saline with Tween-80
  T/C: 103 % of control
dose: 8.0 mg/kg/injection, schedule: Q01DX009 (ip), vehicle: Klucel (hydroxypropylcellulose) (HPC)
  T/C: 180 % of control
dose: 16.0 mg/kg/injection, schedule: Q01DX009 (ip), vehicle: Klucel (hydroxypropylcellulose) (HPC)
  T/C: 170 % of control
dose: 16.0 mg/kg/injection, schedule: Q01DX009 (ip), vehicle: saline with Tween-80
  T/C: 151 % of control
dose: 32.0 mg/kg/injection, schedule: Q01DX009 (ip), vehicle: Klucel (hydroxypropylcellulose) (HPC)
  T/C: 191 % of control
dose: 32.0 mg/kg/injection, schedule: Q01DX009 (ip), vehicle: saline with Tween-80
  T/C: 157 % of control
dose: 37.0 mg/kg/injection, schedule: Q01DX009 (ip), vehicle: Klucel (hydroxypropylcellulose) (HPC)
  T/C: 97 % of control
dose: 50.0 mg/kg/injection, schedule: Q01DX009 (ip), vehicle: Klucel (hydroxypropylcellulose) (HPC)
  T/C: 234 % of control
dose: 64.0 mg/kg/injection, schedule: Q01DX009 (ip), vehicle: Klucel (hydroxypropylcellulose) (HPC)
  T/C: 265 % of control
dose: 100.0 mg/kg/injection, schedule: Q01DX009 (ip), vehicle: Klucel (hydroxypropylcellulose) (HPC)
  T/C: 87 % of control

## CC(CO)/[N+]([O-])=N/O (stereo not drawn)
dose: 6.0 mg/kg/injection, schedule: Q01DX005 (ip), vehicle: Klucel (hydroxypropylcellulose) (HPC)
  T/C: 95 % of control
dose: 12.0 mg/kg/injection, schedule: Q01DX005 (ip), vehicle: Klucel (hydroxypropylcellulose) (HPC)
  T/C: 94 % of control
dose: 24.0 mg/kg/injection, schedule: Q01DX005 (ip), vehicle: Klucel (hydroxypropylcellulose) (HPC)
  T/C: 100 % of control
dose: 48.0 mg/kg/injection, schedule: Q01DX005 (ip), vehicle: Klucel (hydroxypropylcellulose) (HPC)
  T/C: 100 % of control

## C=C(CN(C)C)C(=O)c1ccc(C(=O)C(=C)CN(C)C)cc1
dose: 0.78 mg/kg/injection, schedule: Q01DX005 (ip), vehicle: saline
  T/C: 105 % of control
dose: 1.56 mg/kg/injection, schedule: Q01DX005 (ip), vehicle: saline
  T/C: 107 % of control
dose: 3.12 mg/kg/injection, schedule: Q01DX005 (ip), vehicle: saline
  T/C: 108 % of control

## CC(C)CC1C(=O)N2CCCC2C2(O)OC(NC(=O)C3C=C4c5cccc6[nH]cc(c56)CC4N(C)C3)(C(C)C)C(=O)N12 (stereo not drawn)
dose: 2.5 mg/kg/injection, schedule: Q01DX009 (ip), vehicle: Klucel (hydroxypropylcellulose) (HPC)
  T/C: 91 % of control
dose: 5.0 mg/kg/injection, schedule: Q01DX009 (ip), vehicle: Klucel (hydroxypropylcellulose) (HPC)
  T/C: 90 % of control
dose: 20.0 mg/kg/injection, schedule: Q01DX009 (ip), vehicle: Klucel (hydroxypropylcellulose) (HPC)
  T/C: 99 % of control
dose: 40.0 mg/kg/injection, schedule: Q01DX009 (ip), vehicle: Klucel (hydroxypropylcellulose) (HPC)
  T/C: 101 % of control

## Cn1nc2c(c1-c1cccnc1)CCCc1ccccc1-2
dose: 12.5 mg/kg/injection, schedule: Q01DX009 (ip), vehicle: other
  T/C: 113 % of control
dose: 25.0 mg/kg/injection, schedule: Q01DX009 (ip), vehicle: other
  T/C: 110 % of control
dose: 50.0 mg/kg/injection, schedule: Q01DX009 (ip), vehicle: other
  T/C: 110 % of control
dose: 100.0 mg/kg/injection, schedule: Q01DX009 (ip), vehicle: other
  T/C: 99 % of control
dose: 200.0 mg/kg/injection, schedule: Q01DX009 (ip), vehicle: other
  T/C: 100 % of control

## COC1/C=C/OC2(C)Oc3c(C)c(O)c4c(O)c(c(/C=N/n5c(=O)[nH]c6ccccc6c5=O)c(O)c4c3C2=O)NC(=O)/C(C)=C\C=C\C(C)C(O)C(C)C(O)C(C)C(OC(C)=O)C1C (stereo not drawn)
dose: 50.0 mg/kg/injection, schedule: Q01DX009 (ip), vehicle: saline with Tween-80
  T/C: 107 % of control
[1]
  T/C: 108 % of control
[2]
  T/C: 106 % of control
